What all share (assay): relative viability (nuclei count vs DMSO), 5 days (fraction); higher = more cells survive
Compound in the test “Ponatinib + Palbociclib”: Cc1ccc(C(=O)Nc2ccc(CN3CCN(C)CC3)c(C(F)(F)F)c2)cc1C#Cc1cnc2cccnn12 [Ponatinib] + CC(=O)c1c(C)c2cnc(Nc3ccc(N4CCNCC4)cn3)nc2n(C2CCCC2)c1=O [Palbociclib] (partner 0.5 µM)
Put shortly:
(§1)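 Each reported value is a median over duplicate plates. It expresses relative viability: treated-well nuclei count divided by vehicle-well nuclei count. Lung cancer cell lines in 1536-well plates were dosed by pin tool a day after seeding, alone with one drug or with a fixed anchor-drug dose plus five library-drug doses (not always all listed) in √10 steps, and nuclei were counted after 5 days.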

Compound in the test “Pazopanib + Trametinib”: Cc1ccc(Nc2nccc(N(C)c3ccc4c(C)n(C)nc4c3)n2)cc1S(N)(=O)=O [Pazopanib] + CC(=O)Nc1cccc(-n2c(=O)n(C3CC3)c(=O)c3c(Nc4ccc(I)cc4F)n(C)c(=O)c(C)c32)c1 [Trametinib] (partner 0.02 µM)
Put shortly: as §1

Compound in the test “Pazopanib + Palbociclib”: Cc1ccc(Nc2nccc(N(C)c3ccc4c(C)n(C)nc4c3)n2)cc1S(N)(=O)=O [Pazopanib] + CC(=O)c1c(C)c2cnc(Nc3ccc(N4CCNCC4)cn3)nc2n(C2CCCC2)c1=O [Palbociclib] (partner 0.5 µM)
Put shortly:
as §1

Compound in the test “Pazopanib + Pictilisib”: Cc1ccc(Nc2nccc(N(C)c3ccc4c(C)n(C)nc4c3)n2)cc1S(N)(=O)=O [Pazopanib] + CS(=O)(=O)N1CCN(Cc2cc3nc(-c4cccc5[nH]ncc45)nc(N4CCOCC4)c3s2)CC1 [Pictilisib] (partner 1 µM)
Put shortly:
as §1

Regarding NCI-H1395, the relative viability in the test with Ponatinib + Palbociclib (first compound 0.002 µM) is 0.626; with Ponatinib + Palbociclib (first compound 0.006325 µM), 0.671; with Ponatinib + Palbociclib (first compound 0.06325 µM), 0.572; with Ponatinib + Palbociclib (first compound 0.2 µM) it was 0.47; in the test with Pazopanib + Trametinib (first compound 0.01 µM), 0.833; with Pazopanib + Trametinib (first compound 0.03162 µM), 1.14. The relative viability in the test with Pazopanib + Trametinib (first compound 0.1 µM) turned out to be 1.05; in the test with Pazopanib + Trametinib (first compound 0.3162 µM) it was 1.01; in the test with Pazopanib + Trametinib (first compound 1 µM) it was 0.952; with Pazopanib + Palbociclib (first compound 0.01 µM), 0.572; with Pazopanib + Palbociclib (first compound 0.03162 µM), 0.647; with Pazopanib + Palbociclib (first compound 0.1 µM), 0.659. In addition, the relative viability was 0.6 with Pazopanib + Palbociclib (first compound 0.3162 µM); 0.625 with Pazopanib + Palbociclib (first compound 1 µM); 0.534 with Pazopanib + Pictilisib (first compound 0.01 µM); 0.746 with Pazopanib + Pictilisib (first compound 0.03162 µM); 0.685 with Pazopanib + Pictilisib (first compound 0.1 µM); 0.661 in the test with Pazopanib + Pictilisib (first compound 0.3162 µM). Moreover, the relative viability in the test with Pazopanib + Pictilisib (first compound 1 µM) turned out to be 0.674.
As for NCI-H1437, the relative viability with Ponatinib + Palbociclib (first compound 0.002 µM) is 0.285; with Ponatinib + Palbociclib (first compound 0.006325 µM), 0.318; with Ponatinib + Palbociclib (first compound 0.06325 µM), 0.316; in the test with Ponatinib + Palbociclib (first compound 0.2 µM), 0.332; in the test with Pazopanib + Trametinib (first compound 0.01 µM), 0.525; with Pazopanib + Trametinib (first compound 0.03162 µM), 0.531. Also, the relative viability came to 0.454 in the test with Pazopanib + Trametinib (first compound 0.1 µM); 0.575 with Pazopanib + Trametinib (first compound 0.3162 µM); 0.509 in the test with Pazopanib + Trametinib (first compound 1 µM); 0.327 with Pazopanib + Palbociclib (first compound 0.01 µM); 0.313 in the test with Pazopanib + Palbociclib (first compound 0.03162 µM); 0.284 with Pazopanib + Palbociclib (first compound 0.1 µM). Further, the relative viability with Pazopanib + Palbociclib (first compound 0.3162 µM) turned out to be 0.338; with Pazopanib + Palbociclib (first compound 1 µM), 0.313; in the test with Pazopanib + Pictilisib (first compound 0.01 µM), 0.343; with Pazopanib + Pictilisib (first compound 0.03162 µM) it was 0.449; with Pazopanib + Pictilisib (first compound 0.1 µM), 0.441; in the test with Pazopanib + Pictilisib (first compound 0.3162 µM), 0.499. In addition, the relative viability with Pazopanib + Pictilisib (first compound 1 µM) is 0.626.
For the cell line NCI-H1650, the relative viability with Ponatinib + Palbociclib (first compound 0.002 µM) stood at 0.345; in the test with Ponatinib + Palbociclib (first compound 0.006325 µM) it was 0.365; with Ponatinib + Palbociclib (first compound 0.06325 µM), 0.413; with Ponatinib + Palbociclib (first compound 0.2 µM), 0.335; in the test with Pazopanib + Trametinib (first compound 0.01 µM), 0.725; with Pazopanib + Trametinib (first compound 0.03162 µM), 0.682. The relative viability with Pazopanib + Trametinib (first compound 0.1 µM) is 0.734; with Pazopanib + Trametinib (first compound 0.3162 µM), 0.629; with Pazopanib + Trametinib (first compound 1 µM) it was 0.695; with Pazopanib + Palbociclib (first compound 0.01 µM), 0.333; with Pazopanib + Palbociclib (first compound 0.03162 µM), 0.433; in the test with Pazopanib + Palbociclib (first compound 0.1 µM) it was 0.375. Also, the relative viability in the test with Pazopanib + Palbociclib (first compound 0.3162 µM) turned out to be 0.349; with Pazopanib + Palbociclib (first compound 1 µM) it was 0.393; in the test with Pazopanib + Pictilisib (first compound 0.01 µM), 0.54; with Pazopanib + Pictilisib (first compound 0.03162 µM) it was 0.696; in the test with Pazopanib + Pictilisib (first compound 0.1 µM) it was 0.529; with Pazopanib + Pictilisib (first compound 0.3162 µM), 0.611. Besides, in the test with Pazopanib + Pictilisib (first compound 1 µM), the relative viability came to 0.661.
Regarding NCI-H1651, the relative viability in the test with Ponatinib + Palbociclib (first compound 0.002 µM) was found to be 0.529; with Ponatinib + Palbociclib (first compound 0.006325 µM) it was 0.539; with Ponatinib + Palbociclib (first compound 0.06325 µM), 0.557; with Ponatinib + Palbociclib (first compound 0.2 µM), 0.552; with Pazopanib + Trametinib (first compound 0.01 µM), 0.833; with Pazopanib + Trametinib (first compound 0.03162 µM) it was 0.831. The relative viability with Pazopanib + Trametinib (first compound 0.1 µM) was 0.814; in the test with Pazopanib + Trametinib (first compound 0.3162 µM), 0.808; with Pazopanib + Trametinib (first compound 1 µM), 0.862; with Pazopanib + Palbociclib (first compound 0.01 µM) it was 0.51; with Pazopanib + Palbociclib (first compound 0.03162 µM) it was 0.555; with Pazopanib + Palbociclib (first compound 0.1 µM) it was 0.523. Further, the relative viability stood at 0.489 in the test with Pazopanib + Palbociclib (first compound 0.3162 µM); 0.555 with Pazopanib + Palbociclib (first compound 1 µM); 0.456 in the test with Pazopanib + Pictilisib (first compound 0.01 µM); 0.542 with Pazopanib + Pictilisib (first compound 0.03162 µM); 0.494 with Pazopanib + Pictilisib (first compound 0.1 µM); 0.611 in the test with Pazopanib + Pictilisib (first compound 0.3162 µM). The relative viability in the test with Pazopanib + Pictilisib (first compound 1 µM) turned out to be 0.684.
In the case of NCI-H1666, the relative viability was determined as 0.661 in the test with Ponatinib + Palbociclib (first compound 0.002 µM); 0.659 with Ponatinib + Palbociclib (first compound 0.006325 µM); 0.666 with Ponatinib + Palbociclib (first compound 0.06325 µM); 0.639 with Ponatinib + Palbociclib (first compound 0.2 µM); 0.925 with Pazopanib + Trametinib (first compound 0.01 µM); 0.893 with Pazopanib + Trametinib (first compound 0.03162 µM). The relative viability in the test with Pazopanib + Trametinib (first compound 0.1 µM) was found to be 0.899; with Pazopanib + Trametinib (first compound 0.3162 µM), 0.884; with Pazopanib + Trametinib (first compound 1 µM) it was 1; with Pazopanib + Palbociclib (first compound 0.01 µM), 0.636; with Pazopanib + Palbociclib (first compound 0.03162 µM), 0.604; with Pazopanib + Palbociclib (first compound 0.1 µM), 0.607. In addition, the relative viability in the test with Pazopanib + Palbociclib (first compound 0.3162 µM) was 0.694; in the test with Pazopanib + Palbociclib (first compound 1 µM), 0.667; with Pazopanib + Pictilisib (first compound 0.01 µM), 0.369; in the test with Pazopanib + Pictilisib (first compound 0.03162 µM), 0.307; with Pazopanib + Pictilisib (first compound 0.1 µM), 0.379; with Pazopanib + Pictilisib (first compound 0.3162 µM), 0.421. Further, the relative viability with Pazopanib + Pictilisib (first compound 1 µM) was 0.426.
For the cell line NCI-H1734, the relative viability was found to be 0.34 in the test with Ponatinib + Palbociclib (first compound 0.002 µM); 0.358 with Ponatinib + Palbociclib (first compound 0.006325 µM); 0.347 with Ponatinib + Palbociclib (first compound 0.06325 µM); 0.284 with Ponatinib + Palbociclib (first compound 0.2 µM); 0.669 with Pazopanib + Trametinib (first compound 0.01 µM); 0.697 in the test with Pazopanib + Trametinib (first compound 0.03162 µM). Moreover, the relative viability turned out to be 0.671 with Pazopanib + Trametinib (first compound 0.1 µM); 0.612 in the test with Pazopanib + Trametinib (first compound 0.3162 µM); 0.626 with Pazopanib + Trametinib (first compound 1 µM); 0.33 with Pazopanib + Palbociclib (first compound 0.01 µM); 0.369 with Pazopanib + Palbociclib (first compound 0.03162 µM); 0.353 with Pazopanib + Palbociclib (first compound 0.1 µM). The relative viability in the test with Pazopanib + Palbociclib (first compound 0.3162 µM) stood at 0.378; with Pazopanib + Palbociclib (first compound 1 µM), 0.344; with Pazopanib + Pictilisib (first compound 0.01 µM), 0.385; with Pazopanib + Pictilisib (first compound 0.03162 µM) it was 0.448; with Pazopanib + Pictilisib (first compound 0.1 µM), 0.437; in the test with Pazopanib + Pictilisib (first compound 0.3162 µM), 0.53. Further, the relative viability in the test with Pazopanib + Pictilisib (first compound 1 µM) was 0.461.
For the cell line NCI-H1755, the relative viability in the test with Ponatinib + Palbociclib (first compound 0.002 µM) worked out at 0.419; in the test with Ponatinib + Palbociclib (first compound 0.006325 µM), 0.44; in the test with Ponatinib + Palbociclib (first compound 0.06325 µM), 0.413; with Ponatinib + Palbociclib (first compound 0.2 µM), 0.369; in the test with Pazopanib + Trametinib (first compound 0.01 µM), 0.685; with Pazopanib + Trametinib (first compound 0.03162 µM), 0.748. The relative viability in the test with Pazopanib + Trametinib (first compound 0.1 µM) is 0.799; with Pazopanib + Trametinib (first compound 0.3162 µM), 0.723; in the test with Pazopanib + Trametinib (first compound 1 µM) it was 0.767; with Pazopanib + Palbociclib (first compound 0.01 µM) it was 0.423; with Pazopanib + Palbociclib (first compound 0.03162 µM), 0.454; with Pazopanib + Palbociclib (first compound 0.1 µM), 0.47. Further, the relative viability in the test with Pazopanib + Palbociclib (first compound 0.3162 µM) is 0.457; with Pazopanib + Palbociclib (first compound 1 µM), 0.467; in the test with Pazopanib + Pictilisib (first compound 0.01 µM), 0.368; in the test with Pazopanib + Pictilisib (first compound 0.03162 µM), 0.432; with Pazopanib + Pictilisib (first compound 0.1 µM) it was 0.386; with Pazopanib + Pictilisib (first compound 0.3162 µM), 0.458. In addition, the relative viability with Pazopanib + Pictilisib (first compound 1 µM) was 0.446.
Regarding NCI-H1792, the relative viability with Ponatinib + Palbociclib (first compound 0.002 µM) is 0.605; with Ponatinib + Palbociclib (first compound 0.006325 µM), 0.66; with Ponatinib + Palbociclib (first compound 0.06325 µM), 0.655; in the test with Ponatinib + Palbociclib (first compound 0.2 µM), 0.62; with Pazopanib + Trametinib (first compound 0.03162 µM), 0.432; in the test with Pazopanib + Trametinib (first compound 0.1 µM), 0.418. For the same cell line, the relative viability with Pazopanib + Trametinib (first compound 0.3162 µM) was determined as 0.349; with Pazopanib + Trametinib (first compound 1 µM) it was 0.443; with Pazopanib + Palbociclib (first compound 0.03162 µM) it was 0.632; in the test with Pazopanib + Palbociclib (first compound 0.1 µM), 0.598; with Pazopanib + Palbociclib (first compound 0.3162 µM), 0.649; in the test with Pazopanib + Palbociclib (first compound 1 µM), 0.71. The relative viability in the test with Pazopanib + Pictilisib (first compound 0.03162 µM) was 0.271; with Pazopanib + Pictilisib (first compound 0.1 µM), 0.276; in the test with Pazopanib + Pictilisib (first compound 0.3162 µM), 0.282; with Pazopanib + Pictilisib (first compound 1 µM), 0.309.

The values above are taken from the supplement of paper PMC10307832.
